The test system of one assay is Staph. aureus Smith. Briefly: In vivo activity (oral, iv; ED50) against Staph. aureus Smith in mice.
The next assay has as its system E. coli. In words: Range of MIC for E. coli strains. To be noted: Escherichia coli.
The subject of the next assay is E. coli #311. Briefly: In vivo activity (oral, iv; ED50) against E. coli in mice. To be noted: Escherichia coli. The text has this:
. […] Smith and E. Coli #311 in mammals.
Results of the tests (MIC, oral and IV) are list in Table 7.

Another assay relates to Staph. In words: Range of MIC for Staph. strains, including MRSA. To be noted: Staphylococcus aureus.
Setting [1] is: Staphylococcus aureus, in Mus musculus, po, read-out: ED50 Staph Smith SOD.
Setting [2] is: iv, read-out: ED50 Staph Smith SIV.
The mark [3] stands for this setting: 20 h, read-out: Range of MIC, E. coli (Mouse Serum).
Where [4] appears, read: read-out: Range of MIC, E. coli (Water).
[5] abbreviates: single intravenous dose (SIV), read-out: ED50 E. coli #311 SIV.
[6] abbreviates: single oral dose (SOD), read-out: ED50 E. coli #311 SOD.
Where [7] appears, read: MRSA, read-out: Range of MIC, Staph (Mouse Serum).
[8] abbreviates: read-out: Minimum inhibitory concentration (MIC), Staph (Human Serum).
[9] abbreviates: MRSA, read-out: Range of MIC, Staph (Water).

The structures appear in SMILES notation. In brackets after ≈: the same amount, converted by molar mass. Read-outs that look alike come from different tables or passages of the source.

Experimental for Staph. aureus Smith: Representative examples of compounds of Formula I were tested for the oral efficacy using S. aureus Smith in mice.

With `CCCCCCCOc1ccc(C(=O)OCOC(=O)N(CC(=O)Nc2cc(N(C)C)c3c(c2O)C(=O)C2=C(O)[C@]4(O)C(=O)C(C(N)=O)=C(O)[C@@H](N(C)C)[C@@H]4C[C@@H]2C3)C(C)(C)C)cc1` [Example 102, ({[(2-{[(5aR,6aS,7S,10aS)-9-(aminocarbonyl)-4,7-bis(dimethylamino)-1,8,10a,11-tetrahydroxy-10,12-dioxo-5,5a,6,6a,7,10,10a,12-octahydrotetracen-2-yl]amino}-2-oxoethyl)(tert-butyl)amino]carbonyl}oxy)methyl 4-(heptyloxy)benzoate], the ED50 was 19.8 mg/kg in the assay with Staph. aureus Smith (setting [1]), 1.59 mg/kg with Staph. aureus Smith (setting [2]), 2 to 4 mg/kg in the assay with E. coli #311 (setting [5]) and > 32 mg/kg in the assay on E. coli #311 (setting [6]). For the same compound, the MIC was 0.5 to 1 µg/mL (≈ 0.569 to 1.14 µM) in the assay with E. coli (setting [3]), > 64 µg/mL in the assay with E. coli (setting [4]), 0.5 to 1 µg/mL (≈ 0.569 to 1.14 µM) in the assay with Staph. (setting [7]) and > 64 µg/mL in the assay on Staph. (setting [8]).
For the compound `CC(C)Oc1ccc(C(=O)OCOC(=O)N(CC(=O)Nc2cc(N(C)C)c3c(c2O)C(=O)C2=C(O)[C@]4(O)C(=O)C(C(N)=O)=C(O)[C@@H](N(C)C)[C@@H]4C[C@@H]2C3)C(C)(C)C)cc1` [Example 96, ({[(2-{[(5aR,6aS,7S,10aS)-9-(aminocarbonyl)-4,7-bis(dimethylamino)-1,8,10a,11-tetrahydroxy-10,12-dioxo-5,5a,6,6a,7,10,10a,12-octahydrotetracen-2-yl]amino}-2-oxoethyl)(tert-butyl)amino]carbonyl}oxy)methyl 4-isopropoxybenzoate], the ED50 with Staph. aureus Smith (setting [1]) is 16 to 32 mg/kg; with Staph. aureus Smith (setting [2]) it was 1 to 2 mg/kg; in the assay on E. coli #311 (setting [5]), 2 to 4 mg/kg; with E. coli #311 (setting [6]) it was > 32 mg/kg. The MIC in the assay on E. coli (setting [3]) was in the range of 0.25 to 1 µg/mL (≈ 0.304 to 1.22 µM); with Staph. (setting [7]) it was 0.25 to 1 µg/mL (≈ 0.304 to 1.22 µM); with Staph. (setting [9]), 4 to 16 µg/mL (≈ 4.87 to 19.5 µM).
With `CN(C)c1cc(NC(=O)CN(C(=O)OCOC(=O)c2ccc(C(F)(F)F)cc2)C(C)(C)C)c(O)c2c1C[C@H]1C[C@H]3[C@H](N(C)C)C(O)=C(C(N)=O)C(=O)[C@@]3(O)C(O)=C1C2=O` [Example 55, ({[(2-{[(5aR,6aS,7S,10aS)-9-(aminocarbonyl)-4,7-bis(dimethylamino)-1,8,10a,11-tetrahydroxy-10,12-dioxo-5,5a,6,6a,7,10,10a,12-octahydrotetracen-2-yl]amino}-2-oxoethyl)(tert-butyl)amino]carbonyl}oxy)methyl 4-(trifluoromethyl)benzoate], the ED50 in the assay on Staph. aureus Smith (setting [1]) was > 16 mg/kg; with Staph. aureus Smith (setting [2]), 1.81 mg/kg; in the assay with E. coli #311 (setting [5]) it was 4.69 mg/kg; in the assay with E. coli #311 (setting [6]), 32 mg/kg. The MIC is 0.5 to 8 µg/mL (≈ 0.601 to 9.62 µM) with E. coli (setting [3]); 1 to 2 µg/mL (≈ 1.2 to 2.4 µM) with Staph. (setting [7]); 2 to 8 µg/mL (≈ 2.4 to 9.62 µM) with Staph. (setting [9]); 1 to 4 µg/mL (≈ 1.2 to 4.81 µM) with Staph. (setting [8]); 2 to 8 µg/mL (≈ 2.4 to 9.62 µM) in the assay on Staph. (read-out: Minimum inhibitory concentration (MIC), Staph (Water)).
With `CN(C)c1cc(NC(=O)CN(C(=O)OCOC(=O)C(c2ccccc2)c2ccccc2)C(C)(C)C)c(O)c2c1C[C@H]1C[C@H]3[C@H](N(C)C)C(O)=C(C(N)=O)C(=O)[C@@]3(O)C(O)=C1C2=O` [Example 74, ({[(2-{[(5aR,6aS,7S,10aS)-9-(aminocarbonyl)-4,7-bis(dimethylamino)-1,8,10a,11-tetrahydroxy-10,12-dioxo-5,5a,6,6a,7,10,10a,12-octahydrotetracen-2-yl]amino}-2-oxoethyl)(tert-butyl)amino]carbonyl}oxy)methyl diphenylacetate], the ED50 is > 32 mg/kg in the assay with Staph. aureus Smith (setting [1]), 1.08 mg/kg in the assay with Staph. aureus Smith (setting [2]), > 4 mg/kg in the assay with E. coli #311 (setting [5]) and > 32 mg/kg in the assay on E. coli #311 (setting [6]). Further, the MIC is 0.25 to 1 µg/mL (≈ 0.293 to 1.17 µM) with E. coli (setting [3]), > 64 µg/mL with E. coli (setting [4]) and 0.5 to 4 µg/mL (≈ 0.586 to 4.68 µM) with Staph. (setting [7]).
On to `CN(C)c1cc(NC(=O)CN(C(=O)OCOC(=O)c2ccc(-c3ccccc3)cc2)C(C)(C)C)c(O)c2c1C[C@H]1C[C@H]3[C@H](N(C)C)C(O)=C(C(N)=O)C(=O)[C@@]3(O)C(O)=C1C2=O` [Example 71, ({[(2-{[(5aR,6aS,7S,10aS)-9-(aminocarbonyl)-4,7-bis(dimethylamino)-1,8,10a,11-tetrahydroxy-10,12-dioxo-5,5a,6,6a,7,10,10a,12-octahydrotetracen-2-yl]amino}-2-oxoethyl)(tert-butyl)amino]carbonyl}oxy)methyl 1,1′-biphenyl-4-carboxylate], for which the ED50 was > 32 mg/kg in the assay with Staph. aureus Smith (setting [1]), 1 mg/kg in the assay with Staph. aureus Smith (setting [2]), > 4 mg/kg in the assay with E. coli #311 (setting [5]) and > 32 mg/kg in the assay on E. coli #311 (setting [6]). Moreover, the MIC in the assay on E. coli (setting [3]) is 0.12 to 0.25 µg/mL (≈ 0.143 to 0.298 µM); with E. coli (setting [4]), > 64 µg/mL; in the assay with Staph. (setting [7]) it was 0.5 to 1 µg/mL (≈ 0.595 to 1.19 µM); in the assay on Staph. (setting [9]) it was 32 to 64 µg/mL (≈ 38.1 to 76.2 µM).

As usually defined, the ED50 is the midpoint of the dose-response relation.

(Values after patent US20070049564A1 (Wyeth, priority 2005, published 2007).)
